Tests used:
[1] = molecular target: Death-associated protein kinase 1 (Homo sapiens, UniProt P53355); test: Selectivity interaction (Adapta Assay) EUB0001632a DAPK1; details: at 10 µM
[2] = molecular target: Histone-lysine N-methyltransferase, H3 lysine-79 specific (Homo sapiens, UniProt Q8TEK3); test: Selectivity interaction (Methyltransferase screen (radiometric assays, panel of 8 PRMTs, 21 protein lysine methyltransferases, 3 DNA methyltransferases, and one RNA methyltransferase)) EUB0000272b DOT1L
[3] = molecular target: T1, Phosphatidylinositol 5-phosphate 4-kinase type-2 alpha (Homo sapiens) (UniProt P48426); test: Selectivity interaction (Kinase panel (literature)) EUB0001199aCl PIP4K2A; details: at 1 µM
T1 sequence (whole entry): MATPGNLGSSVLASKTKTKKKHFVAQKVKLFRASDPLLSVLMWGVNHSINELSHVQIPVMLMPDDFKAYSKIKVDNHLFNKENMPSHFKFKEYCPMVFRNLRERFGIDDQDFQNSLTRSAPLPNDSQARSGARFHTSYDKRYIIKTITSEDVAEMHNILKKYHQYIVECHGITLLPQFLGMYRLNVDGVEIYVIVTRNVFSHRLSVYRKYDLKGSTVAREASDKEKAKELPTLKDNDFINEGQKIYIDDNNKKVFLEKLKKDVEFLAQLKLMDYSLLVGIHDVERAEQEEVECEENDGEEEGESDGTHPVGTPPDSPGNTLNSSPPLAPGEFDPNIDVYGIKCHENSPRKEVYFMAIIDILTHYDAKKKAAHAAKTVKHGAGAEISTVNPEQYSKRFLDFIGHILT

[4] = molecular target: Phosphatidylinositol 4-phosphate 5-kinase type-1 alpha (Homo sapiens) (UniProt Q99755); test: Selectivity interaction (ProQinase) EUB0000171b PIP5K1A
[5] = molecular target: T2, Histone-lysine N-methyltransferase SMYD3 (Homo sapiens) (UniProt Q9H7B4); test: Selectivity interaction (Methyltransferase screen (radiometric assays, panel of 8 PRMTs, 21 protein lysine methyltransferases, 3 DNA methyltransferases, and one RNA methyltransferase)) EUB0000271b SMYD3
T2 sequence (whole entry): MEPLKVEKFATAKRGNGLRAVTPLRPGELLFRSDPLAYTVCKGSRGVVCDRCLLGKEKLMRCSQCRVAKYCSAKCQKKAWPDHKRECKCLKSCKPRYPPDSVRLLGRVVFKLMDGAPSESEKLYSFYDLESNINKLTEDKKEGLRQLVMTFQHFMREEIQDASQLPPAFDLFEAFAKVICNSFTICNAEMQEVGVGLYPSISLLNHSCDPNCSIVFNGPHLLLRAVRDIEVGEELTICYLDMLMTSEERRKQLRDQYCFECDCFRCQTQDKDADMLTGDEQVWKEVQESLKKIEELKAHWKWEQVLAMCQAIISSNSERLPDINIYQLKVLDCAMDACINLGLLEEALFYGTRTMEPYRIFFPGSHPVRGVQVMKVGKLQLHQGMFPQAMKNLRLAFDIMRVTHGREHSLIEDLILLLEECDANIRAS

[6] = molecular target: Serine/threonine-protein kinase PLK3 (Homo sapiens, UniProt Q9H4B4); test: Selectivity interaction (KinomeScan (DiscoverX)) EUB0000695a PLK3; details: at 100 nM
[7] = molecular target: Serine/threonine-protein kinase N1 (Homo sapiens, UniProt Q16512); test: Selectivity interaction (KinomeScan (DiscoverX)) EUB0000595a PKN1; details: at 10 µM
[8] = molecular target: T3, Inhibitor of nuclear factor kappa-B kinase subunit epsilon (Homo sapiens) (UniProt Q14164); test: Selectivity interaction (Ambit KINOMEscan and KiNATiv profiling in Jurkat cells) EUB0000090b IKBKE; format: cell-based; details: at 1 µM
T3 sequence (whole entry): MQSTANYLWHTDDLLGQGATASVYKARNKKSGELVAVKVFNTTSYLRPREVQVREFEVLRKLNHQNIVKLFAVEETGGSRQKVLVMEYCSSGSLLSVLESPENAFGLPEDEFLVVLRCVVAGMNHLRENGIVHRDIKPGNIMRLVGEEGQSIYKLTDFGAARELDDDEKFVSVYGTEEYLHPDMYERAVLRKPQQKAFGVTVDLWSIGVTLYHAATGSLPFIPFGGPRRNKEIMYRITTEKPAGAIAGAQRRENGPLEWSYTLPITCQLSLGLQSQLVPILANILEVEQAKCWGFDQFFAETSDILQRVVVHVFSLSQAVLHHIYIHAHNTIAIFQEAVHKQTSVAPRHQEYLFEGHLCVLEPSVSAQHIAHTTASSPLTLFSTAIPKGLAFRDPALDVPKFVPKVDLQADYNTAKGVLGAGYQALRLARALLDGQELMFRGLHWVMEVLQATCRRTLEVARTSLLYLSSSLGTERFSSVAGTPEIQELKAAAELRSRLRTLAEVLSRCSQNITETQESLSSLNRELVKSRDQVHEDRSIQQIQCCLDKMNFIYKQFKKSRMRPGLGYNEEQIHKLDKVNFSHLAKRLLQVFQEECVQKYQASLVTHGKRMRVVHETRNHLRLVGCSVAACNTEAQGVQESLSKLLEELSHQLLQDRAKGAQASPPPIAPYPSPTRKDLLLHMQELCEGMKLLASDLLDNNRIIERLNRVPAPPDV

[9] = molecular target: Cyclin-dependent kinase 8 (Homo sapiens, UniProt P49336); test: Selectivity interaction (KinomeScan (DiscoverX)) EUB0000229b CDK8; details: at 10 µM
[10] = test system: eIF-2-alpha kinase GCN2 (Homo sapiens), Q9P2K8 [S808G]; test: Selectivity interaction (KinomeScan (DiscoverX)) EUB0000092b EIF2AK4; details: at 10 µM
[11] = molecular target: T4, Activin receptor type-1B (Homo sapiens) (UniProt P36896); test: Selectivity interaction (KinomeScan (DiscoverX)) EUB0000092b ACVR1B; details: at 10 µM
T4 sequence (whole entry): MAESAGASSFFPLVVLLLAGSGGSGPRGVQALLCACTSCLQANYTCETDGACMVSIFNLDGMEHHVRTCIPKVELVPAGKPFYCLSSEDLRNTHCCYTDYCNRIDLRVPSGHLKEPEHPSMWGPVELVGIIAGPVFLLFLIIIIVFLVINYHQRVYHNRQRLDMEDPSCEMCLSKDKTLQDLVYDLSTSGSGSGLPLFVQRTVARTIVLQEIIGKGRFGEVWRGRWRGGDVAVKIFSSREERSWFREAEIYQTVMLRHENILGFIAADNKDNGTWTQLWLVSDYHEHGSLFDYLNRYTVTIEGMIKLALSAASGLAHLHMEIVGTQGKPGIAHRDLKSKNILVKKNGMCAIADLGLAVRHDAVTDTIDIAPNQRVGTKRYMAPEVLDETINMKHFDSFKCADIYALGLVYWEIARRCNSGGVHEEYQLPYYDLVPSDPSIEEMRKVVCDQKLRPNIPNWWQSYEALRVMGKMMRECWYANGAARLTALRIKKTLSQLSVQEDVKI

[12] = molecular target: Mitotic checkpoint serine/threonine-protein kinase BUB1 (Homo sapiens, UniProt O43683); test: Selectivity interaction (KinomeScan (DiscoverX)) EUB0001619a BUB1; details: at 1 µM
Chain of Mitotic checkpoint serine/threonine-protein kinase BUB1 (O43683 whole entry, looked up): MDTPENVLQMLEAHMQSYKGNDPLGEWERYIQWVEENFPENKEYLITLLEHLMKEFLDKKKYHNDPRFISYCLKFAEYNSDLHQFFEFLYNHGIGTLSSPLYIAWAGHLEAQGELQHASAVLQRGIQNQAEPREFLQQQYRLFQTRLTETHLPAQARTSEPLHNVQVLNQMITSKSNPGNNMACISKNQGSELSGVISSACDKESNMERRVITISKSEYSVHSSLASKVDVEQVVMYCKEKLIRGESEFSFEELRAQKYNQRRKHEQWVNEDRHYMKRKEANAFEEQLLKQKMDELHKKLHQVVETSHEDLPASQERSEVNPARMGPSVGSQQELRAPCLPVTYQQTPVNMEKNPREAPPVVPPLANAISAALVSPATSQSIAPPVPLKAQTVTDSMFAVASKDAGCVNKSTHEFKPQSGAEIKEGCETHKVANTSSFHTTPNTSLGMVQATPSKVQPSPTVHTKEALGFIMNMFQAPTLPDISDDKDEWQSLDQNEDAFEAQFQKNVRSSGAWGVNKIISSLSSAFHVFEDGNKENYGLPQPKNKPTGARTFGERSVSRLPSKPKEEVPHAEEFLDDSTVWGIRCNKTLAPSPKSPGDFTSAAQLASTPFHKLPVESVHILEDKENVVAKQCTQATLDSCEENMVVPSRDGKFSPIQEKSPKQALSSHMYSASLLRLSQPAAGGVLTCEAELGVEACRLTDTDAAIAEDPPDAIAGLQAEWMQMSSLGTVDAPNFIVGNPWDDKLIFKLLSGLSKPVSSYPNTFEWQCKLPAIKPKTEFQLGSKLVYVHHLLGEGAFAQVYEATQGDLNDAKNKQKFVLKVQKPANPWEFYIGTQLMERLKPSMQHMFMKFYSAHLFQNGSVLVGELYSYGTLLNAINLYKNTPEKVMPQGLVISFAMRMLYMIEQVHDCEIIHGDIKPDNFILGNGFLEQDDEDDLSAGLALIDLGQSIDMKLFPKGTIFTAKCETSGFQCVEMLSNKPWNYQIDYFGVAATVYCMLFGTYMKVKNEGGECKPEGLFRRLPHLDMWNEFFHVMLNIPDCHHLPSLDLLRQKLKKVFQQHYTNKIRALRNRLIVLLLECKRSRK

Chain of Histone-lysine N-methyltransferase, H3 lysine-79 specific (Q8TEK3 whole entry, looked up): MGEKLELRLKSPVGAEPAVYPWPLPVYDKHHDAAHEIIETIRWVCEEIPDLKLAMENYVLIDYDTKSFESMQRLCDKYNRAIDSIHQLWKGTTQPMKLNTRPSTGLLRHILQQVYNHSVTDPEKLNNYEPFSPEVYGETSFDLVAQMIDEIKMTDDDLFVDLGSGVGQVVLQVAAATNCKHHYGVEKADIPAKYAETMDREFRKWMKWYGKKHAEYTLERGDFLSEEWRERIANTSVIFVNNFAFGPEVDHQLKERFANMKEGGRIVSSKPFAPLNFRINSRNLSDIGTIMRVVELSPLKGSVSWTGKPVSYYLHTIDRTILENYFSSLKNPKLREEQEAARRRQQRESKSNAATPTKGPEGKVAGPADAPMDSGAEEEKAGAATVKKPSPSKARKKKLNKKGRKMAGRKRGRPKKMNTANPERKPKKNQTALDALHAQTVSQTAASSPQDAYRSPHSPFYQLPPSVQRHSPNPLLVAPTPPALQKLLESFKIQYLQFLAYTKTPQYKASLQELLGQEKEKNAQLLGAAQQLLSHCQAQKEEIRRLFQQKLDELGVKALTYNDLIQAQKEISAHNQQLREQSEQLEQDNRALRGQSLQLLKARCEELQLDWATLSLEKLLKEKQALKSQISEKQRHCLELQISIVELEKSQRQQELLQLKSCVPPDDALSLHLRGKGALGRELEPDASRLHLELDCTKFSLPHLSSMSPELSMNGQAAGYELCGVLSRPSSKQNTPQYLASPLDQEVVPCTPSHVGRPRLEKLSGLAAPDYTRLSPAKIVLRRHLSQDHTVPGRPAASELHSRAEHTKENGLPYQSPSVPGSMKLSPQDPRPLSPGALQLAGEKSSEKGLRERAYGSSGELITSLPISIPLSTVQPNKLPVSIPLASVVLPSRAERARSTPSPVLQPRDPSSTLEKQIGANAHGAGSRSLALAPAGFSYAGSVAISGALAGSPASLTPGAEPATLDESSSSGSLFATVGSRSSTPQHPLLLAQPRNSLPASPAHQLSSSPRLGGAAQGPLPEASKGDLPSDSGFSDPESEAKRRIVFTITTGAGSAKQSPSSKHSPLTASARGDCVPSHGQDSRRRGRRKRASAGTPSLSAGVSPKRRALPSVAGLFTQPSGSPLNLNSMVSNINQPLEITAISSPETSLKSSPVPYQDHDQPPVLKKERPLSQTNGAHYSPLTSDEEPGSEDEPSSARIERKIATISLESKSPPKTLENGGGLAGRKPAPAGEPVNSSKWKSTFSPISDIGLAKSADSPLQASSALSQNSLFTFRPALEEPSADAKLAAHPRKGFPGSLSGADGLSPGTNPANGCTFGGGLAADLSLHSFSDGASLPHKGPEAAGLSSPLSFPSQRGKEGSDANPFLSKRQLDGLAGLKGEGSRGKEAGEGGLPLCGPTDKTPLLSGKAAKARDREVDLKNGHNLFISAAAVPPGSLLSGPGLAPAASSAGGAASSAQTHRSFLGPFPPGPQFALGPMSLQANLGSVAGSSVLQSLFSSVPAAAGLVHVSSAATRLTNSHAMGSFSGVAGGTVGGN
Chain of Phosphatidylinositol 4-phosphate 5-kinase type-1 alpha (Homo sapiens) (Q99755 whole entry): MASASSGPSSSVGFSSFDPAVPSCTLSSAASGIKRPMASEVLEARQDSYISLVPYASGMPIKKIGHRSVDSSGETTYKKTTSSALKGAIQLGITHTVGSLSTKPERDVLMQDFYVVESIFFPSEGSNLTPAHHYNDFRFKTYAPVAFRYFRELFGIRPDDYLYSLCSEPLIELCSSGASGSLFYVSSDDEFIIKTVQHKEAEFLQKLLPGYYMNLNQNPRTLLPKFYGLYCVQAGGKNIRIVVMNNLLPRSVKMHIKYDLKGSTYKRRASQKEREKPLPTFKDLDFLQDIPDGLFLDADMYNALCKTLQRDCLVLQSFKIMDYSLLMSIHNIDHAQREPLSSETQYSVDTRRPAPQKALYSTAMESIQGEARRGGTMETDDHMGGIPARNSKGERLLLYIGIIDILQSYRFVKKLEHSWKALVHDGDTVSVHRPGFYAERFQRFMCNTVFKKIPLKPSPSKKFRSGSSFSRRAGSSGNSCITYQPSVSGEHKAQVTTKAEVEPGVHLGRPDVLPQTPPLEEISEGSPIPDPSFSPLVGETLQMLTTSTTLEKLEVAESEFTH
Chain of Death-associated protein kinase 1 (P53355 whole entry, looked up): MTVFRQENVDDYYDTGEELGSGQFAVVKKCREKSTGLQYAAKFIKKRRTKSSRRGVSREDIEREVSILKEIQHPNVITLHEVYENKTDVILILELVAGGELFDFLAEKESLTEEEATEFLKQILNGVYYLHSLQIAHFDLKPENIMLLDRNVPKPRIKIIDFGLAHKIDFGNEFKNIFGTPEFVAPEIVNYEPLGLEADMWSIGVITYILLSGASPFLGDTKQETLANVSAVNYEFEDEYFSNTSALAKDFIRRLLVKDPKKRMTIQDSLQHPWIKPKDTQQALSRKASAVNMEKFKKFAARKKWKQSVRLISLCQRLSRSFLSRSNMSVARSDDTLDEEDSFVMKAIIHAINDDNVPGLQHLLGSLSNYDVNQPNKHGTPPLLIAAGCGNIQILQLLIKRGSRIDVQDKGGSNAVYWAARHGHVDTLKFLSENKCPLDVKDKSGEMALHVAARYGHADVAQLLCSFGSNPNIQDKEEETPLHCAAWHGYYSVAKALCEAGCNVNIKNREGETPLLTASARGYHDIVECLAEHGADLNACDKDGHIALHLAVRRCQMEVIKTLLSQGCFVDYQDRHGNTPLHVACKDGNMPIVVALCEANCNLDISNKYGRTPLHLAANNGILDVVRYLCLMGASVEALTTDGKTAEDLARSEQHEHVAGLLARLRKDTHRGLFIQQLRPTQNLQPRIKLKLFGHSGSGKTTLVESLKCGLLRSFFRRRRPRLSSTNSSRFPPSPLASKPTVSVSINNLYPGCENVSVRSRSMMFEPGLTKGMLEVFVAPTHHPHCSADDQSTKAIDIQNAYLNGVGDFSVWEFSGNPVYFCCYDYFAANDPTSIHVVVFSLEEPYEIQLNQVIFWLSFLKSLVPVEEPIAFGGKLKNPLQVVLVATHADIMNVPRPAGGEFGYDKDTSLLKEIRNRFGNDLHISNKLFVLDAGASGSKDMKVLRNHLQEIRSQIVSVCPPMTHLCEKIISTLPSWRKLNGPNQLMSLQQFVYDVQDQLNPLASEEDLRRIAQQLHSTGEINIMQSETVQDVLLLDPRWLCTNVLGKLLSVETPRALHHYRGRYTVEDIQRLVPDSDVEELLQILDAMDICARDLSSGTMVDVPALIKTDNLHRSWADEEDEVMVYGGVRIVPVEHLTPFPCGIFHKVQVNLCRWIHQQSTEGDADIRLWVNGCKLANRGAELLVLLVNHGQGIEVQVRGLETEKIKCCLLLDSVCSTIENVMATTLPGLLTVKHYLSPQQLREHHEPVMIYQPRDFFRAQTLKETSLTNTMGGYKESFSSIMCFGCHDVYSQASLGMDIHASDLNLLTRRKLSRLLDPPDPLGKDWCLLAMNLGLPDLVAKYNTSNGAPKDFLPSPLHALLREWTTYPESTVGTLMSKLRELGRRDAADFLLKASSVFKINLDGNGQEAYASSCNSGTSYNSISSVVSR
Chain of Cyclin-dependent kinase 8 (P49336 whole entry): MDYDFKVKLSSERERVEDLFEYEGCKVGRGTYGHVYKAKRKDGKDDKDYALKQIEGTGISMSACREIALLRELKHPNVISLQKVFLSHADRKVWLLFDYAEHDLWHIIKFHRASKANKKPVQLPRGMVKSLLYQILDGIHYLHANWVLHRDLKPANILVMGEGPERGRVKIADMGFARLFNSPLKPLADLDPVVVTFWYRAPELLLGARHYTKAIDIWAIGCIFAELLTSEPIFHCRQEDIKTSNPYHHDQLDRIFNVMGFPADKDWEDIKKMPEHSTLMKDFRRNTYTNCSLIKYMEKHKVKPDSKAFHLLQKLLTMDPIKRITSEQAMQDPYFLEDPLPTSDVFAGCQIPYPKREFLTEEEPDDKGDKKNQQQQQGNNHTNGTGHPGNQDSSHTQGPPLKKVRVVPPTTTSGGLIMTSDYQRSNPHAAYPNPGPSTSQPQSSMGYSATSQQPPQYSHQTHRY

Q: With `Cn1cc(-n2cnc3c(NCc4nc5cc(Cl)c(Cl)cc5[nH]4)nc(N4CCOCC4)nc32)cn1` as the compound, how does the % of inhibition [1] read?
A: 34%

Q: What does the source list for `Cc1cc(C)cc([C@H]2c3cc(C)ccc3NC(=O)CN2C(=O)c2ccc(Br)s2)c1`?
A: % of activity ([2]; at 1 µM): 100%; % of activity ([2]; at 10 µM): 94.3%

Q: For `CN1Cc2nccc(-c3cn(C)nc3-c3ccc(F)cc3)c2C1=O`, which % of inhibition [3] is on record?
A: -6%

Q: Which results are given for `C=CC(=O)Nc1cccc(C(=O)Nc2ccc(Nc3cc(-c4[nH]c(SC)nc4C)ccn3)cc2)c1`?
A: % of control ([4]; at 1 µM): 102%; % of control ([4]; at 5 µM): 44%

Q: For `Cc1cc(C)cc([C@@H]2c3cc(C)ccc3NC(=O)CN2C(=O)c2ccc(Br)s2)c1`, which % of activity ([5]; at 1 µM) is on record?
A: 100%

Q: And the % of activity ([5]; at 10 µM)?
A: 98.3%

Q: `Cc1cc(F)c(C(=O)Nc2cccc(-c3nncn3C(C)C)n2)cc1-n1cnc(C2CC2)c1` was tested. Which % of control [6] did it give?
A: 100%

Q: `COCC(=O)NC/C=C/c1ccc2ncnc(Nc3ccc(Oc4ccc(C)nc4)c(C)c3)c2c1` [CP-724714] was tested. Which % of control [7] did it give?
A: 100%

Q: For `CN(C)C/C=C/C(=O)Nc1ccc(C(=O)N2CCCC(Nc3ncc(Cl)c(-c4c[nH]c5ccccc45)n3)C2)cc1` (stereo not given), which % of control [8] is on record?
A: 100%

Q: `COc1cc(N(C)c2ccnc3ccc(C(F)(F)F)cc23)cc(OC)c1OC` was tested. Which % binding [9] did it give?
A: 100%

Q: For `CCC(=O)N1CCN(c2ccc(-n3c(=O)ccc4cnc5ccc(-c6cnc7ccccc7c6)cc5c43)cc2C(F)(F)F)CC1`, which % of control [10] is on record?
A: 99%

Q: What about the % of control [11] of the same compound?
A: 45%

Q: `N#Cc1cccc(-c2c[nH]c3ncnc(N4CCOCC4)c23)c1` was tested. Which % of control [12] did it give?
A: 86%

Source: ChEMBL document CHEMBL5465560, “Selectivity Literature for EUbOPEN Chemogenomic Library” (2024)
